The values below come from US9481688B2, “(Thieno[2,3-b][1,5]benzoxazepin-4-yl)piperazin-1-yl compounds as dual activity H1 inverse agonists/5-HT2A antagonists” (Eli Lilly and Company, priority 2011, dated 2016).

One series addresses Dopamine D1 (Homo sapiens (Human), UniProt P21728). As to the kind of experiment: Dopamine D1 binding. The text has this: (§1) Further, the compounds of the invention may be tested in binding assays and functional activity assays by well known methods for other physiologically important receptors such as, but not limited to, the hERG channel, other serotonin receptors (specifically 5-HT1B, 5-HT1D, receptors, lack of agonist activity at 5-HT2B receptors, 5-HT2C, 5-HT5, 5-HT6, and 5-HT7 receptors), dopaminergic receptors (specifically D1, D2, and D3), GABAA receptors, adrenergic receptors and monoamine transporters.

The target of series [1] is 5-HT2A receptor (Mus musculus (Mouse), UniProt P35363). As to the kind of experiment: Inhibition of DOI induced headshake activity. The class given is in vivo. The following applies: 10 mg/kg PO, mice, 60 min. pre-treatment, read-out: inhibition of DOI induced headshake response. The source says:
(§2) J Neurosci Methods. […] Recording Environment. […] Relative humidity averages approximately 50%. […] Study Design and Dosing. […] Data Collection. […] Statistical Analysis.

Another series deals with Dopamine D2 (Homo sapiens (Human), UniProt P14416). As to the kind of experiment: Dopamine D2 binding. The following applies: dihydrochloride.
Source text: as §1

Series [2] concerns the target T1, 5-HT2B (Homo sapiens (Human), UniProt P41595). Briefly: 5-HT2B agonist functional activity. It counts as biochemical.
Source text: as §1

Series [3] deals with T2, human recombinant H1 receptor (Homo sapiens (Human), UniProt P35367). As to the kind of experiment: H1 competition binding assay ([3H]-Pyrilamine, SPA). The following applies: dihydrochloride. How it is done: [^3H]-Pyrilamine binding experiments are carried out in SPA (scintillation proximity assay) 96-well format. Membranes used in this assay are prepared from HEK-293 cells stably expressing recombinant H1 receptor (human). The incubation is initiated by the addition of a mixture of WGA PVT SPA beads (1 mg/well, Perkin Elmer (MA, USA) RPNQ0001) and 3 μg membranes to assay buffer (67 mM Tris; pH 7.6) containing 3.5 nM [^3H]-Pyrilamine and varying concentrations of the test compound (10 point concentration response curves). Non-specific binding is determined in the presence of 10 μM Triprolidine. Samples are incubated for 4 hr. at room temperature (22° C.) and then read in a Microbeta Trilux.
Curves are evaluated using a 4-parameter logistic nonlinear equation to obtain the concentration of competitor causing 50% inhibition of radioligand binding (IC50). Equilibrium dissociation constants (Ki) are calculated according to the equation Ki=IC50/(1+L/Kd), where L equals the concentration of radioligand used in the experiment and Kd equals the equilibrium dissociation constant of the radioligand for the receptor, determined from standard saturation analysis or homologous competition experiments. Reported values for Ki, where n values are indicated, are shown as geometric mean±the standard error of the mean (SEM), with the number of replicate determinations indicated by n. […]

A further series has as its target Dopamine D3 (Homo sapiens (Human), UniProt P35462). Briefly: Dopamine D3 binding. The following applies: dihydrochloride.
Source text: as §1

Series [4] addresses T2, human recombinant H1 receptor. Briefly: H1 inverse agonism (IP1 accumulation in HEK293/hm H1 cells). It counts as cell-based. The following applies: n=2.
Another series concerns the target Adrenergic alpha2A (Homo sapiens (Human), UniProt P08913). Briefly: Adrenergic alpha2A binding.
Source text: as §1

Series [5] concerns the target recombinant 5-HT2A receptor (human) (Homo sapiens (Human), UniProt P28223). Briefly: 5-HT2A competition binding assay ([3H]-Ketanserin, SPA). The following applies: dihydrochloride.
Experimental: [^3H]-Ketanserin binding experiments are carried out in SPA 96-well format. Membranes used in this assay are prepared from AV-12 cells stably expressing recombinant 5-HT2A receptor (human). The incubation is initiated by the addition of a mixture of WGA YSi SPA beads (1 mg/well, Perkin Elmer (MA, USA), RPNQ0011) and 2 μg membranes to assay buffer (67 mM Tris, 0.5 mM EDTA; pH 7.6) containing 3.1 nM [^3H]-Ketanserin and varying concentrations of the test compound (10 point concentration response curves). Non-specific binding is determined in the presence of 20 μM 1-(1-Naphthyl) piperazine. Samples are incubated for 4 hr. at room temperature (22° C.) and then read in a Microbeta Trilux.
Another series deals with Adrenergic alpha2C (Homo sapiens (Human), UniProt P18825). Briefly: Adrenergic alpha2C binding.
Source text: as §1

The target in another series is Adrenergic alpha1A (Homo sapiens (Human), UniProt P35348). As to the kind of experiment: Adrenergic alpha1A binding.
Source text: as §1

The target of series [6] is 5-HT2A Receptor (Rattus norvegicus (Rat), UniProt P14842). As to the kind of experiment: 5-HT2A receptor occupancy in vivo (MDL 100907 tracer). The following applies: oral gavage, 1 hr. before tracer.
Source text: as §2

Series [7] deals with T1, 5-HT2B. As to the kind of experiment: 5-HT2B antagonist functional activity. The class given is biochemical.
Source text: as §1

A further series concerns the target 5-HT6 (Homo sapiens (Human), UniProt P50406). Briefly: 5-HT6 binding.
Source text: as §1

Series [8] in a line: Plasma clearance in dog (intravenous). It counts as in vivo. The following applies: male, Beagle, 1 mg/kg. The protocol: Male Beagle dogs (body weight range 10-12 kg) are obtained from Marshall Bioresources, USA. Test compound is administered intravenously in solution (1 mL/kg) in 20% Captisol® in 22.5 mM phosphate buffer, pH 2, at a final drug concentration of 1.0 mg/mL (free base equivalents). Blood samples are obtained from the jugular vein over 24 hr. Samples of plasma are obtained by centrifugation and stored frozen (−20° C.) prior to analysis.
Frozen plasma samples are thawed to room temperature for bioanalysis of concentrations of test compound. A related internal standard compound in acetonitrile/methanol (1:1, v/v) is added to all samples of plasma (1:1, v/v). The samples are centrifuged to remove precipitated protein prior to analysis. The supernatants are analysed by injection and rapid gradient elution on a Javelin Betasil C18 column (20×2.1 mm cartridge, Mobile phase A: Water/1 M NH4HCO3, 2000:10 v/v, Mobile Phase B: MeOH/1 M NH4HCO3, 2000:10 v/v). The eluted analytes are detected by LC-MS-MS analysis using a Sciex API 4000 triple quadrupole mass spectrometer. Concentrations of compound are determined from standards prepared and analysed under identical conditions. Clearance is calculated using non-compartmental analysis in Watson 7.4, Thermo Fisher Scientific, Inc.

A further series has as its target Adrenergic alpha1B (Homo sapiens (Human), UniProt P35368). Briefly: Adrenergic alpha1B binding.
Source text: as §1

Another series addresses hERG channel (Homo sapiens (Human), UniProt Q12809). As to the kind of experiment: hERG channel assay.
Source text: as §1
Background: hERG is a cardiac potassium channel; its block is linked to QT prolongation.

Series [9] deals with T1, 5-HT2B. Briefly: 5-HT2B binding.
Source text: as §1

In a further series the target is Adrenergic alpha2B (Homo sapiens (Human), UniProt P18089). As to the kind of experiment: Adrenergic alpha2B binding.
Source text: as §1

The target of a further series is 5-HT5 (Homo sapiens (Human), UniProt P47898). Briefly: 5-HT5 binding.
Source text: as §1

Where a name gives a salt, the structure may show the parent alone.

T2 sequence (P35367 whole entry): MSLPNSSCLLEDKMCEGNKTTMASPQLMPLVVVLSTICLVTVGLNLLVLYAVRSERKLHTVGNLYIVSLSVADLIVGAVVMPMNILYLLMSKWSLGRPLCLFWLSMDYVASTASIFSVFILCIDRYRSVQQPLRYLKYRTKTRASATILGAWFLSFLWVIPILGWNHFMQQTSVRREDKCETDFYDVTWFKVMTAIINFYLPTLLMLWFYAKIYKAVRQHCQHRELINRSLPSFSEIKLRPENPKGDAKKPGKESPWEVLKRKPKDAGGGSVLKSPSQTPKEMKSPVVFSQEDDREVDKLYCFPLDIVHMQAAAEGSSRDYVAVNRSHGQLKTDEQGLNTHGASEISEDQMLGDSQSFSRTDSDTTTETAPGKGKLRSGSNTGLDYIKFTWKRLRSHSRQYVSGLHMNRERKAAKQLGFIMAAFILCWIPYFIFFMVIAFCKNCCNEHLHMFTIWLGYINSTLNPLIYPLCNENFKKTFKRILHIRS
T1 sequence (P41595 whole entry, species assumed): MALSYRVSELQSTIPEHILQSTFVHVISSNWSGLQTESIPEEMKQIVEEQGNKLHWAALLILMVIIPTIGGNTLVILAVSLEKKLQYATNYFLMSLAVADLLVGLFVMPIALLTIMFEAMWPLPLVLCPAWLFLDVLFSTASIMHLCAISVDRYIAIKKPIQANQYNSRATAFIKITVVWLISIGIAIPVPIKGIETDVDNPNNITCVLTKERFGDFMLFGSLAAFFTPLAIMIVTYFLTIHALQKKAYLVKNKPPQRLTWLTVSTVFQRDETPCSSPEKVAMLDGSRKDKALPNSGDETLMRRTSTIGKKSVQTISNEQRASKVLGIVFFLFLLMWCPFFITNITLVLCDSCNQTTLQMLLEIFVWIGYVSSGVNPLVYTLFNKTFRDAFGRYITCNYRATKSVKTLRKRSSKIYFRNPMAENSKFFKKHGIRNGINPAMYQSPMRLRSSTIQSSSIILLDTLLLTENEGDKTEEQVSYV
Dopamine D1, sequence (P21728 whole entry): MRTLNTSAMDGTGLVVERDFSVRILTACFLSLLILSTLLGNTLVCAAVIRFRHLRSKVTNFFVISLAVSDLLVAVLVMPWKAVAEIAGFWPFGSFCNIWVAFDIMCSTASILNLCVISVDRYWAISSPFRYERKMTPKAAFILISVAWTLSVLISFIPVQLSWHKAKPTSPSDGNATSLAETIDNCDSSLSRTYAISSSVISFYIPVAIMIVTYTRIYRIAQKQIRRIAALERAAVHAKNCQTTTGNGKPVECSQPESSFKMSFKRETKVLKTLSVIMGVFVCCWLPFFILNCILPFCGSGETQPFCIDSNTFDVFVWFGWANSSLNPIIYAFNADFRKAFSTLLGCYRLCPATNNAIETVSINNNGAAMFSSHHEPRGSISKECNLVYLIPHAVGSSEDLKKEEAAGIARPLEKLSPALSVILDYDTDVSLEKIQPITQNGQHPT
Adrenergic alpha1B, sequence (P35368 whole entry): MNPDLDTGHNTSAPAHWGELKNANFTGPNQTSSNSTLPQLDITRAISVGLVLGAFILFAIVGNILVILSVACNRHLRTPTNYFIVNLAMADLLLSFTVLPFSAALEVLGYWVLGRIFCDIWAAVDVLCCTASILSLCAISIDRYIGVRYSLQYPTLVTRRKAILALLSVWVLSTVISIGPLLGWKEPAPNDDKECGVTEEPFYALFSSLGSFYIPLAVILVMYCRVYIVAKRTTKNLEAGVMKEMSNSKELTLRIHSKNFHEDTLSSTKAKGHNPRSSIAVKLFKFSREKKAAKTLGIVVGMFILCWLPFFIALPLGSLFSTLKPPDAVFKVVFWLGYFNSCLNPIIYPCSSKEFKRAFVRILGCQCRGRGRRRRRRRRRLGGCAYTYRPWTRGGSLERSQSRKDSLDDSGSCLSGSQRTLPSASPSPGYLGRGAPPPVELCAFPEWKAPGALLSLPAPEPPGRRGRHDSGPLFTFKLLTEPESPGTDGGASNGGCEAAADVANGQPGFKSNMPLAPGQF
Adrenergic alpha2B, sequence (P18089 whole entry): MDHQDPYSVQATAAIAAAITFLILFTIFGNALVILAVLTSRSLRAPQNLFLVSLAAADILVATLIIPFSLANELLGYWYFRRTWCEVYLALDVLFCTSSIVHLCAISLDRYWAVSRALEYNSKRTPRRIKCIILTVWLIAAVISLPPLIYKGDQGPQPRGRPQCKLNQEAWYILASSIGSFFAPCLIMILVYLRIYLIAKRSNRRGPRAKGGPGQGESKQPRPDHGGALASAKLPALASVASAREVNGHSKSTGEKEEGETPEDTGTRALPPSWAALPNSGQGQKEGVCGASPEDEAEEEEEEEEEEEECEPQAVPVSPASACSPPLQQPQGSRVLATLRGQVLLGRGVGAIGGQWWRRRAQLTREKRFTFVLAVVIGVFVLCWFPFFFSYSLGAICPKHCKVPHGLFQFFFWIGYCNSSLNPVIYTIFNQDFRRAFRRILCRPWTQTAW
Adrenergic alpha2A, sequence (P08913 whole entry): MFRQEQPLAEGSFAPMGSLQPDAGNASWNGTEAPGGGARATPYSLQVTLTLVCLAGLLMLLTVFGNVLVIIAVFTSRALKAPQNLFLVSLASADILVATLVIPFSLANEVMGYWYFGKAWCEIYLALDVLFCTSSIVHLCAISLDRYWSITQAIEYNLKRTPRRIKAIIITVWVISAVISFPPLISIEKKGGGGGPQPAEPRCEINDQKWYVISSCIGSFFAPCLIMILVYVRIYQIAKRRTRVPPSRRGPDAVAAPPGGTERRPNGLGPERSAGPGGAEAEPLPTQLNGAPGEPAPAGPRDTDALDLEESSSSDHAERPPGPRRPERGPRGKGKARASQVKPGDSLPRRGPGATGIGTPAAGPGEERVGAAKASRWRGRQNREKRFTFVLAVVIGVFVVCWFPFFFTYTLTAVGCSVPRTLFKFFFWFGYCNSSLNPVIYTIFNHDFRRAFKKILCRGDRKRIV
Dopamine D2, sequence (P14416 whole entry): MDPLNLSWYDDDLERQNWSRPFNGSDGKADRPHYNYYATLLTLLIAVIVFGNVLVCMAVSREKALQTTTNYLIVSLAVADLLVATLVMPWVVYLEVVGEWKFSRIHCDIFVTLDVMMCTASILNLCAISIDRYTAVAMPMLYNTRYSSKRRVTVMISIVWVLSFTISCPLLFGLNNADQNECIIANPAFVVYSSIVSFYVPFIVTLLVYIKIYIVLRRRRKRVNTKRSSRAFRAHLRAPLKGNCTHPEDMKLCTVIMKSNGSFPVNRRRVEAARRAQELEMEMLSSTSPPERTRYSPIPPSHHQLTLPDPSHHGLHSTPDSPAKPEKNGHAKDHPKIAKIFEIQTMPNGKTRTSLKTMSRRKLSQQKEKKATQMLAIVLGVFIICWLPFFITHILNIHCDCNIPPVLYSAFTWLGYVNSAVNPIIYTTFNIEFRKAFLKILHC
Adrenergic alpha1A, sequence (P35348 whole entry): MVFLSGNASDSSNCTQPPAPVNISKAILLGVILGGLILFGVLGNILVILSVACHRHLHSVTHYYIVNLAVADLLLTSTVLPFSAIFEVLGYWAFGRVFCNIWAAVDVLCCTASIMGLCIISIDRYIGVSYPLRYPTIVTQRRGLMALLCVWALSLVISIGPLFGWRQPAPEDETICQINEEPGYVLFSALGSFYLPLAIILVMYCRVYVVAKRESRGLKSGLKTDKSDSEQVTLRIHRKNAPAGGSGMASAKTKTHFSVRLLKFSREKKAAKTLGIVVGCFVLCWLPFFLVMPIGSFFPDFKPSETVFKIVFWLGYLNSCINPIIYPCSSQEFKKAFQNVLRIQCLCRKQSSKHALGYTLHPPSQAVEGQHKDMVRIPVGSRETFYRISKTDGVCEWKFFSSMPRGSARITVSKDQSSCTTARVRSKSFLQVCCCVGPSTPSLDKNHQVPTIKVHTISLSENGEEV
hERG channel, sequence (Q12809 whole entry): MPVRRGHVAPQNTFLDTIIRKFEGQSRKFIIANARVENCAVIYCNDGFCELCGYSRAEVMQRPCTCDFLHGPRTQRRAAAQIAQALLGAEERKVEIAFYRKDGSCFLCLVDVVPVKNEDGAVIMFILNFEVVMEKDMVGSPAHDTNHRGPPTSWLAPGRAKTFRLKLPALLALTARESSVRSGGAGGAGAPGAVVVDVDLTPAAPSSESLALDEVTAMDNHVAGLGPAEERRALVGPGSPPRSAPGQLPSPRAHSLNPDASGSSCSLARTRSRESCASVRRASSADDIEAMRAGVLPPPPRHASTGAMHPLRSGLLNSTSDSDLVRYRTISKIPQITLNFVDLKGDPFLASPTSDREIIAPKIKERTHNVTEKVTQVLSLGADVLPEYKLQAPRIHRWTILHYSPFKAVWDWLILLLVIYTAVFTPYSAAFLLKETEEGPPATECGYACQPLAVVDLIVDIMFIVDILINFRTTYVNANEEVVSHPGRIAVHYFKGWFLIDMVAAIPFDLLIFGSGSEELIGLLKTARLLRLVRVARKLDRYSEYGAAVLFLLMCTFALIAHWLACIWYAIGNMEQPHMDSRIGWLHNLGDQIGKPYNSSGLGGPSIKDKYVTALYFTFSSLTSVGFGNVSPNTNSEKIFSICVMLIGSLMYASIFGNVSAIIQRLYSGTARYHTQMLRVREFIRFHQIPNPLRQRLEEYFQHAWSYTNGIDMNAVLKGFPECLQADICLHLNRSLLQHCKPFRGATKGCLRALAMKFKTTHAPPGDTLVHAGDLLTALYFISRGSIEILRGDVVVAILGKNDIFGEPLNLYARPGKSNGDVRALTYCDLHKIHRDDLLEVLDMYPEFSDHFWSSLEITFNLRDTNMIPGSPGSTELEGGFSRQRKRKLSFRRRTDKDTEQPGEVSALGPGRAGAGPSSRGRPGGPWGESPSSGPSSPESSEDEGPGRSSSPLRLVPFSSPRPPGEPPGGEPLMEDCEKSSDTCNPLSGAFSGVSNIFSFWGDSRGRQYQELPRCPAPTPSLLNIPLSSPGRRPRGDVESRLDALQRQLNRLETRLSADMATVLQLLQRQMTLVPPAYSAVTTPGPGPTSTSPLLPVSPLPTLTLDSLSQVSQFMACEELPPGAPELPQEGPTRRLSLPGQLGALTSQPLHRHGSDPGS

Broadly, the Ki is a dissociation constant, usually derived from enzyme kinetics or from competition with a known ligand. The inhibition is how much of the control response was suppressed. The term EC50 denotes the concentration giving half of the maximal effect. The low end stands for higher potency in that assay, the high end for lower potency in that assay. One may read the ED50 as the midpoint of the dose-response relation. Read a high ED50 as a need for a large dose. One may read the Kb as the equilibrium dissociation constant of an antagonist, usually derived from a functional assay. Read a high Kb as lower antagonist affinity. Broadly, the clearance is the rate of elimination divided by the concentration. Low values mean a low capacity for elimination, high ones a high capacity for elimination. Turning to `Cc1ccc2c(c1)Oc1sc(Cl)cc1C(N1CCN(CC(C)(C)C(=O)O)CC1)=N2` [Example 3, 3-[4-(2-chloro-8-methyl-thieno[2,3-b][1,5]benzoxazepin-4-yl)piperazin-1-yl]-2,2-dimethyl-propanoic acid dihydrochloride], the inhibition constant Ki on Dopamine D1 is 592 nM; on Dopamine D2 it was more than 4570 nM; in series [3], 58.8 nM; on Dopamine D3 it was more than 5680 nM; at Adrenergic alpha2A it was more than 8990 nM; in [5], 7.01 nM. Moreover, the inhibitory constant (Ki) at Adrenergic alpha2C was more than 4230 nM; at Adrenergic alpha1A, more than 10200 nM; at 5-HT6, more than 5830 nM; at Adrenergic alpha1B, more than 14700 nM; on 5-HT2B [9] it was 121 nM; at Adrenergic alpha2B, more than 5760 nM. On 5-HT5, this compound came in with an inhibitory constant (Ki) of more than 8810 nM. In addition, the inhibition at 10 mg/kg on 5-HT2A receptor [1] came out at 100%. The same compound yielded an EC50 on 5-HT2B [2] of more than 10000 nM. Further, the “suppression of constitutive activity (IP1), relative to Tripelennamine” value in series [4] (at 1 μM) stood at 105%; in [4] (at 10 μM) it was 85%. At 5-HT2A Receptor [6], this compound showed a median effective dose (ED50) of 0.09 mg/kg. The antagonist equilibrium constant (Kb) at 5-HT2B [7] was determined as 78.6 nM. The clearance in series [8] amounted to 3.2 mL/min/kg. On hERG channel, the “hERG Channel” value was more than 100 µM.
